Data on five compounds can be found in patent publication US20110236330A1, “Skin Whitening” (priority 2008, published 2011).

Data set [1] is described as follows: Stability assay (visual coloration of solutions on storage). The data set is classed as physicochemical. More on the design: key to Coloration: —: no coloration; +: moderate coloration; ++: strong coloration. As to conditions: for Coloration: room temperature, aqueous buffer:ethanol 1:1, away from day light; for Stability in protic solution: up to 120 days of incubation. The protocol: 5-hydroxy-L-tryptophan, 6-fluoro-DL-tryptophan, 4-methyl-DL-tryptophan were dissolved at 1 or 10 mg/ml in a solution aqueous buffer at ph 5.5 and pH 7 (citric acid 0.1 M, Na2HPO4 0.2 M):ethanol 1:1 vol:vol. The solutions are kept away from day light and stored at room temperature. After 30, 60 and 120 days, the coloration of the solutions are visually assessed.

Data set [2] concerns Melanocytes (B16 cell line). Kind of data set: Melanogenesis inhibition assay (melanin level and cellular protein level). It is filed as cell-based. As to conditions: 3 days incubation; for Protein level: cellular proteins (Bradford) as number of viable cells; for Melanin level: optical density at 475 nm. The protocol: Melanocytes (B16 cell line) are inoculated in standard medium of cell culture with fetal calf serum (FCS). After an incubation of 3 days at 37° C. and CO2=5%, growth medium is exchanged for standard medium with a range of concentrations for each compound to be tested and a control without ingredient. After an incubation of 3 days, the level of melanin is measured by recording the optical density at 475 nm. After washing the cells by a balanced salt, and homogenization in a solution of 0.1 M NaOH, the number of viable cells is determined by the level of cellular proteins (Bradford's method).
The results are expressed in % against control (cell culture medium without compound) as a mean on 2 to 3 assays, each in triplicate.

For `NC(Cc1c[nH]c2cc(F)ccc12)C(=O)O` (racemic) [6-Fluoro-DL-Tryptophan], the Coloration result is “—” in data set [1] (pH 5.5, 30 days); “—” in data set [1] (pH 5.5, 60 days); “—” in data set [1] (pH 5.5, 120 days); “—” in data set [1] (pH 7.0, 30 days); “—” in data set [1] (pH 7.0, 60 days); “—” in data set [1] (pH 7.0, 120 days). Also, the “Stability in protic solution” value in data set [1] (pH 5.5 and 7) is “high stability”. The results for the Protein level in data set [2] (dose 0.001 % (w/v)) and in data set [2] (dose 0.003 % (w/v)) were 106 %/control and 108 %/control, respectively. Moreover, the Melanin level in data set [2] (dose 0.001 % (w/v)) was 44 %/control; in data set [2] (dose 0.003 % (w/v)), 10 %/control.
As to `Cc1cccc2[nH]cc(CC(N)C(=O)O)c12` (racemic) [4-Methyl-DL-Tryptophan], the Coloration result in data set [1] (pH 5.5, 30 days) is reported as “—”; in data set [1] (pH 5.5, 60 days), “—”; in data set [1] (pH 5.5, 120 days) it was “—”; in data set [1] (pH 7.0, 30 days) it was “—”; in data set [1] (pH 7.0, 60 days), “—”; in data set [1] (pH 7.0, 120 days), “—”. In addition, the “Stability in protic solution” value in data set [1] (pH 5.5 and 7) is “high stability”. In addition, the Protein level in data set [2] (dose 0.001 % (w/v)) was determined as 97 %/control; in data set [2] (dose 0.003 % (w/v)), 100 %/control. For the same compound, the figures for the Melanin level in data set [2] (dose 0.001 % (w/v)) and in data set [2] (dose 0.003 % (w/v)) were 56 %/control and 33 %/control, respectively.
Turning to `N[C@@H](Cc1c[nH]c2ccc(O)cc12)C(=O)O` [5-hydroxy-L-tryptophan, 5-Hydroxy-L-Tryptophan, reference compound], the “Coloration of the solution (in words)” value in data set [1] (at 30 days, protic solution, pH 5.5 and 7) is given as “visible dark-brown coloration”. Further, the Coloration entry in data set [1] (pH 5.5, 30 days) is given as “++”; in data set [1] (pH 5.5, 60 days) it was “++”; in data set [1] (pH 5.5, 120 days), “++”; in data set [1] (pH 7.0, 30 days), “++”; in data set [1] (pH 7.0, 60 days) it was “++”; in data set [1] (pH 7.0, 120 days) it was “++”.
Consider `COc1ccc2[nH]cc(CC(N)C(=O)O)c2c1` (racemic) [5-Methoxy-DL-Tryptophan], for which the Protein level in data set [2] (dose 0.001 % (w/v)) is 96 %/control; in data set [2] (dose 0.003 % (w/v)), 92 %/control. Besides, the Melanin level came to 90 %/control in data set [2] (dose 0.001 % (w/v)) and 65 %/control in data set [2] (dose 0.003 % (w/v)).
For `Cc1ccc2c(CC(N)C(=O)O)c[nH]c2c1` (racemic) [6-Methyl-DL-Tryptophan], in data set [2] (dose 0.003 % (w/v)), the Protein level came out at 102 %/control and the Melanin level was 81 %/control. In data set [2] (dose 0.01 % (w/v)), the Protein level worked out at 100 %/control and the Melanin level is reported as 39 %/control.
